Article PMC12090182, “Repurposing of the RIPK1-Selective Benzo[1,4]oxazepin-4-one Scaffold for the Development of a Type III LIMK1/2 Inhibitor” (ACS Chemical Biology, 2025)
Read-outs that look alike come from different tables or passages of the source.

What was measured:
Test in all cases: biochemical
Assay type in all cases: binding
[1] = molecular target: 468 kinases including some pathogenic mutants (Homo sapiens, UniProt P57059); conditions: SIK (Entrez SIK1), 100 nM; read-out: Percent Control
[2] = molecular target: 468 kinases including some pathogenic mutants (Homo sapiens, UniProt P22694); conditions: PKAC-beta (Entrez PRKACB), 100 nM; read-out: Percent Control
[3] = molecular target: 468 kinases including some pathogenic mutants (Homo sapiens, UniProt Q8WTQ7); conditions: GRK7 (Entrez GRK7), 100 nM; read-out: Percent Control
[4] = molecular target: 468 kinases including some pathogenic mutants (Homo sapiens, UniProt P49336); conditions: CDK8 (Entrez CDK8), 100 nM; read-out: Percent Control
[5] = molecular target: 468 kinases including some pathogenic mutants (Homo sapiens, UniProt P57078); conditions: RIPK4 (Entrez RIPK4), 100 nM; read-out: Percent Control
[6] = molecular target: 468 kinases including some pathogenic mutants (Homo sapiens, UniProt Q9H3Y6); conditions: SRMS (Entrez SRMS), 1000 nM; read-out: Percent Control
[7] = molecular target: 468 kinases including some pathogenic mutants (Homo sapiens, UniProt Q59H18); conditions: TNNI3K (Entrez TNNI3K), 100 nM; read-out: Percent Control
[8] = molecular target: 468 kinases including some pathogenic mutants (Homo sapiens, UniProt P80192); conditions: MLK1 (Entrez MAP3K9), 1000 nM; read-out: Percent Control
[9] = molecular target: 468 kinases including some pathogenic mutants (Homo sapiens, UniProt Q16620); conditions: TRKB (Entrez NTRK2), 100 nM; read-out: Percent Control
[10] = molecular target: 468 kinases including some pathogenic mutants (Homo sapiens, UniProt P23458); conditions: read-out: Percent Control
[11] = molecular target: 468 kinases including some pathogenic mutants (Homo sapiens, UniProt P19784); conditions: CSNK2A2 (Entrez CSNK2A2), 100 nM; read-out: Percent Control
[12] = molecular target: 468 kinases including some pathogenic mutants (Homo sapiens, UniProt P06239); conditions: LCK (Entrez LCK), 100 nM; read-out: Percent Control
[13] = molecular target: 468 kinases including some pathogenic mutants (Homo sapiens, UniProt P24723); conditions: PRKCH (Entrez PRKCH), 1000 nM; read-out: Percent Control
[14] = molecular target: 468 kinases including some pathogenic mutants (Homo sapiens, UniProt Q32MK0); conditions: MLCK (Entrez MYLK3), 100 nM; read-out: Percent Control
[15] = molecular target: 468 kinases including some pathogenic mutants (Homo sapiens, UniProt Q12866); conditions: MERTK (Entrez MERTK), 100 nM; read-out: Percent Control
[16] = molecular target: 468 kinases including some pathogenic mutants (Homo sapiens, UniProt P35968); conditions: VEGFR2 (Entrez KDR), 100 nM; read-out: Percent Control
[17] = molecular target: 468 kinases including some pathogenic mutants (Homo sapiens, UniProt P00519, Q252H)
[18] = molecular target: 468 kinases including some pathogenic mutants (Homo sapiens, UniProt P07949); conditions: RET (Entrez RET), 1000 nM; read-out: Percent Control
[19] = molecular target: 468 kinases including some pathogenic mutants (Homo sapiens, UniProt O14578); conditions: CIT (Entrez CIT), 100 nM; read-out: Percent Control
[20] = molecular target: 468 kinases including some pathogenic mutants (Homo sapiens, UniProt P10721, L576P); conditions: read-out: Percent Control
[21] = molecular target: 468 kinases including some pathogenic mutants (Homo sapiens, UniProt O43683); conditions: BUB1 (Entrez BUB1), 100 nM; read-out: Percent Control
[22] = molecular target: 468 kinases including some pathogenic mutants (Homo sapiens, UniProt O75747); conditions: PIK3C2G (Entrez PIK3C2G), 100 nM; read-out: Percent Control
[23] = molecular target: 468 kinases including some pathogenic mutants (Homo sapiens, UniProt Q86YV6); conditions: MYLK4 (Entrez MYLK4), 1000 nM; read-out: Percent Control
[24] = molecular target: 468 kinases including some pathogenic mutants (Homo sapiens, UniProt Q15349); conditions: read-out: Percent Control
[25] = molecular target: 468 kinases including some pathogenic mutants (Homo sapiens, UniProt O43283); conditions: LZK (Entrez MAP3K13), 100 nM; read-out: Percent Control
[26] = molecular target: 468 kinases including some pathogenic mutants (Homo sapiens, UniProt Q02156); conditions: PRKCE (Entrez PRKCE), 1000 nM; read-out: Percent Control
[27] = molecular target: 468 kinases including some pathogenic mutants (Homo sapiens, UniProt O94768); conditions: DRAK2 (Entrez STK17B), 100 nM; read-out: Percent Control
[28] = molecular target: 468 kinases including some pathogenic mutants (Homo sapiens, UniProt O14965); conditions: AURKA (Entrez AURKA), 100 nM; read-out: Percent Control

Chain of 468 kinases including some pathogenic mutants (Homo sapiens, UniProt P23458) (P23458 whole entry, change not shown): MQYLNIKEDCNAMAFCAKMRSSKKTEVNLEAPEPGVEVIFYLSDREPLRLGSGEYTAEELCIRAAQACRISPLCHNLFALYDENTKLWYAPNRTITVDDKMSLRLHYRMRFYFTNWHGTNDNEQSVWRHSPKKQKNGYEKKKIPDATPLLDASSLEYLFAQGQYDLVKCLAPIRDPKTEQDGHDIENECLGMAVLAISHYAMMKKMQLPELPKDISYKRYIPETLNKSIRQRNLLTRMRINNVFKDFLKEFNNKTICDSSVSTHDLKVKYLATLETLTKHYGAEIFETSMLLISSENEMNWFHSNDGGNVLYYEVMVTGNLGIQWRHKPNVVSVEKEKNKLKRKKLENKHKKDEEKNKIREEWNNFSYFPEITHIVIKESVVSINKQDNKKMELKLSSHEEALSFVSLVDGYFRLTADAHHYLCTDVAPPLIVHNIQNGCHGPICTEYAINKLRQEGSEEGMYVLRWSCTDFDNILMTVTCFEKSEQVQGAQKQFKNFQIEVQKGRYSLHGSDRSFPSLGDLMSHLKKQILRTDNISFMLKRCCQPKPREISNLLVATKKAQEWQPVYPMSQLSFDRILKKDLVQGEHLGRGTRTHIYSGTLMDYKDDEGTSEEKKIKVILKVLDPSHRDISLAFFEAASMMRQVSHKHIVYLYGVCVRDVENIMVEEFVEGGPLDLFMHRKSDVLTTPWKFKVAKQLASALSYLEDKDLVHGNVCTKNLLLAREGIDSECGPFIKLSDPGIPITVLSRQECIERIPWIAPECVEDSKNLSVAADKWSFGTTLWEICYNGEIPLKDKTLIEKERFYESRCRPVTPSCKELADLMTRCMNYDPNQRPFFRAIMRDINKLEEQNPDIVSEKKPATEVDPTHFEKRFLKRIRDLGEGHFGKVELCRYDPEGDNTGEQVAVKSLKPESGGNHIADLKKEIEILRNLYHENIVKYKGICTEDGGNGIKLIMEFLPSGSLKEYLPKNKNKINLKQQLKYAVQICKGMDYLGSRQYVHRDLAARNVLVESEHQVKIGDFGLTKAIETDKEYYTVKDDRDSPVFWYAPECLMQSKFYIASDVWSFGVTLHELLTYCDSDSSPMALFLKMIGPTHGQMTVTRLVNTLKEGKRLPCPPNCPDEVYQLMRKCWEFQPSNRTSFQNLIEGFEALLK
Chain of 468 kinases including some pathogenic mutants (Homo sapiens, UniProt Q15349) (Q15349 whole entry, change not shown): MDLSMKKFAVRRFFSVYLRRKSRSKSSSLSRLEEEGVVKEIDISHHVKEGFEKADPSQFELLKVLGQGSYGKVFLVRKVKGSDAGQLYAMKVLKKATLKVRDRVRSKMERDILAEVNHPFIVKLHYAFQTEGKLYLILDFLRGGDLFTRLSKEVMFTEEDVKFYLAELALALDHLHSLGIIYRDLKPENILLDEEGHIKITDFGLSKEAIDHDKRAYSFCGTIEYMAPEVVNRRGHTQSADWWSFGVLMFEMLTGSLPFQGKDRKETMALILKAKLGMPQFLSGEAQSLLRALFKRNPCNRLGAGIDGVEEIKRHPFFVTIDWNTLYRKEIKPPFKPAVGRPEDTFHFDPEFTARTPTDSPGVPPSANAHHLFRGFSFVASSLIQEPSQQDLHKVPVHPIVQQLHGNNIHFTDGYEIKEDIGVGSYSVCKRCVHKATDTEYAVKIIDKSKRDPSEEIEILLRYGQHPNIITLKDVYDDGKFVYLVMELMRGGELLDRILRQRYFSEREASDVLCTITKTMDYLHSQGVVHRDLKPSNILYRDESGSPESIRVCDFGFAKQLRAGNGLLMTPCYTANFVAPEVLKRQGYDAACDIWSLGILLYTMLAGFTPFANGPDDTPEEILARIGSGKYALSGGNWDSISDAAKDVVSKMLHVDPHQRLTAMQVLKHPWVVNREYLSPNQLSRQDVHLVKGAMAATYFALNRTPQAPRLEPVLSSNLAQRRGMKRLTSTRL
Chain of 468 kinases including some pathogenic mutants (Homo sapiens, UniProt P80192) (P80192 whole entry, change not shown): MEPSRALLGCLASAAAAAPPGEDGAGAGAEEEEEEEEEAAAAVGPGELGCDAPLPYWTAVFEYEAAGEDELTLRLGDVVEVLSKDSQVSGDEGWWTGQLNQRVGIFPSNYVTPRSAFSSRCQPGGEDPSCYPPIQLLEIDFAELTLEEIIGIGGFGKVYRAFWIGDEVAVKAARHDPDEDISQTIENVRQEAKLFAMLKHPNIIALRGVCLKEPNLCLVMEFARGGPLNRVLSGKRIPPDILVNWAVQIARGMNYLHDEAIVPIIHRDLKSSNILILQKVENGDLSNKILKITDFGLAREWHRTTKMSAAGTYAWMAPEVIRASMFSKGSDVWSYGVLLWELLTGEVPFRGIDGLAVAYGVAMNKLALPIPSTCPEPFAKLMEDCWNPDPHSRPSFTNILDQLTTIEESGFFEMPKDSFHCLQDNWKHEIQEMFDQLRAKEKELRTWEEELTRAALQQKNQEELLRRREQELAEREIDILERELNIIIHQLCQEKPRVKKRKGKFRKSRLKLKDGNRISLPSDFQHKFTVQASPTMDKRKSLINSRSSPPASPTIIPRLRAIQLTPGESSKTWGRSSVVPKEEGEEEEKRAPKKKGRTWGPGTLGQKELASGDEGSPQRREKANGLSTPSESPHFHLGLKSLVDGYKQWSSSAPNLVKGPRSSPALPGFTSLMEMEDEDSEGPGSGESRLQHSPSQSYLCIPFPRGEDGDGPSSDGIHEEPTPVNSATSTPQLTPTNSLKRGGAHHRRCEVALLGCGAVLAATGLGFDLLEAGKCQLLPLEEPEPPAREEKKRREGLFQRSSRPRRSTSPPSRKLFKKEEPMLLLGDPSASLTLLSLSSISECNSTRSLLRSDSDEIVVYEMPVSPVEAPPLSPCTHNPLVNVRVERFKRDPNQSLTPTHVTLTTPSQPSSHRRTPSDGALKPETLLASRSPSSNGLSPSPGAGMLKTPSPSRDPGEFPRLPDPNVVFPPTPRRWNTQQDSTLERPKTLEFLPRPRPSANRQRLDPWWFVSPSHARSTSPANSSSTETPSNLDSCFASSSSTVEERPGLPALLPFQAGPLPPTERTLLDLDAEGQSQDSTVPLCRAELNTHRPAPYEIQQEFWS
Chain of 468 kinases including some pathogenic mutants (Homo sapiens, UniProt P35968) (P35968 20-1356, stated change not applied): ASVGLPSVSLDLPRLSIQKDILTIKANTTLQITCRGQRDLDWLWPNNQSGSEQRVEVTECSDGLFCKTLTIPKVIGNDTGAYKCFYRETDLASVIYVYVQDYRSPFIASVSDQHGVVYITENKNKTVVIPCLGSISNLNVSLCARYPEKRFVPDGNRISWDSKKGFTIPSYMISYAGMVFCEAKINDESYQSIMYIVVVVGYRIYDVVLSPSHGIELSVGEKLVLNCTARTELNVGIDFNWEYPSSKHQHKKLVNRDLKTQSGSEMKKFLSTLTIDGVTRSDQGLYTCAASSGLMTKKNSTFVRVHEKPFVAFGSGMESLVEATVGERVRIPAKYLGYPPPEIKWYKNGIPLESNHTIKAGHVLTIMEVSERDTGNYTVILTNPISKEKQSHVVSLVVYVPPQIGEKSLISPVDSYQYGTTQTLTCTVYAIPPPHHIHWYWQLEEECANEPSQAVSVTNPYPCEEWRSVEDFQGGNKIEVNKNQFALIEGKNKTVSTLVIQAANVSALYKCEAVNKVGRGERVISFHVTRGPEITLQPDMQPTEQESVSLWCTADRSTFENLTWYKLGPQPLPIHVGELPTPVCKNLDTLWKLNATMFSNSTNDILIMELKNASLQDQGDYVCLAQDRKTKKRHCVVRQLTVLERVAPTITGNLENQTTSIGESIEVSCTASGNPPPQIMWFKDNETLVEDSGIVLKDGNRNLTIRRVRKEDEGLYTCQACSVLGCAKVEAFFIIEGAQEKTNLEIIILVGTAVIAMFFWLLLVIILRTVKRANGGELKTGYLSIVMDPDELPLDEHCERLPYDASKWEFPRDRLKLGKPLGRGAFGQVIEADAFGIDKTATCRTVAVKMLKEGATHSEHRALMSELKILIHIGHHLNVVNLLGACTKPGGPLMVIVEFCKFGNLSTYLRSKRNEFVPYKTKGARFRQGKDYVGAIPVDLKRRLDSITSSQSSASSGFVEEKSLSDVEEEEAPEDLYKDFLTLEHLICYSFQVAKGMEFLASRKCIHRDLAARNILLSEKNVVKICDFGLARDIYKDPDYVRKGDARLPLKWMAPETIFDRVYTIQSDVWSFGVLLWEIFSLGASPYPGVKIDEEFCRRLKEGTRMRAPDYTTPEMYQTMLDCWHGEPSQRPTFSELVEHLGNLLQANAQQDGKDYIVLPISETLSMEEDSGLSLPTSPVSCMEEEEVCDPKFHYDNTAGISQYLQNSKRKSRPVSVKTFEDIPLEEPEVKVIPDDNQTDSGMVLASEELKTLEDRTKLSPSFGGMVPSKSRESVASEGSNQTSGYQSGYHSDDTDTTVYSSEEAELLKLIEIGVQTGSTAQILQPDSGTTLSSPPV
Chain of 468 kinases including some pathogenic mutants (Homo sapiens, UniProt P49336) (P49336 whole entry, change not shown): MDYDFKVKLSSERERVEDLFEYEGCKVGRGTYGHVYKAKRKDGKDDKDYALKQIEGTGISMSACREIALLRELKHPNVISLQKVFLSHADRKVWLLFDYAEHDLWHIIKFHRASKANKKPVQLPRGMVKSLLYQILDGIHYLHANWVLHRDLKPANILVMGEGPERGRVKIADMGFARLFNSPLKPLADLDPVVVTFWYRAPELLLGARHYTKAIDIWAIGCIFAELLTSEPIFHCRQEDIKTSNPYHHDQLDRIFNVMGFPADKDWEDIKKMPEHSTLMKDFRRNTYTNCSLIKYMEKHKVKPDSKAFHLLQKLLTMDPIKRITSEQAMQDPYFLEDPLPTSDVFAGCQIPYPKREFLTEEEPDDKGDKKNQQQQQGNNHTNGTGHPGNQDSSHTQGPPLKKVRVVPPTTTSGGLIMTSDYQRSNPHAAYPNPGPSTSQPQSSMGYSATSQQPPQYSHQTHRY

Question: Which results are given for `CN1C(=O)[C@@H](N2CCc3c(nn(Cc4ccccc4)c3C(N)=O)C2=O)COc2cc(Cl)ccc21` [Compound 10, (S)-2-benzyl-6-(8-chloro-5-methyl-4-oxo-2,3,4,5-tetrahydrobenzo[b][1,4]oxazepin-3-yl)-7-oxo-4,5,6,7-tetrahydro-2H-pyrazolo[3,4-c]pyridine-3-carboxamide]?
Answer: remaining activity at 0.1 µM [1]: 71%; remaining activity at 0.1 µM [2]: 56%; remaining activity at 0.1 µM [3]: 77%; remaining activity at 0.1 µM [4]: 100%; remaining activity at 0.1 µM [5]: 96%; remaining activity at 1 µM [6]: 100%; remaining activity at 0.1 µM [7]: 82%; remaining activity at 1 µM [8]: 100%; remaining activity at 0.1 µM [9]: 88%; remaining activity at 0.1 µM ([10]; JAK1(JH1domain-catalytic) (Entrez JAK1), 100 nM): 83%; remaining activity at 0.1 µM [10]: 97%; remaining activity at 0.1 µM [11]: 74%; remaining activity at 0.1 µM [12]: 100%; remaining activity at 1 µM [13]: 100%; remaining activity at 0.1 µM [14]: 91%; remaining activity at 0.1 µM [15]: 72%; remaining activity at 0.1 µM [16]: 81%; Percent Control ([17]; listed as LIJTF500025): 88%; remaining activity at 0.1 µM ([17]; read-out: Percent Control): 71%; remaining activity at 1 µM [18]: 100%; remaining activity at 0.1 µM [19]: 95%; remaining activity at 0.1 µM [20]: 72%; remaining activity at 0.1 µM [21]: 84%; remaining activity at 0.1 µM [22]: 67%; remaining activity at 1 µM [23]: 100%; remaining activity at 0.1 µM ([24]; RSK3(Kin.Dom.1-N-terminal) (Entrez RPS6KA2), 100 nM): 100%; remaining activity at 1 µM ([24]; RSK3(Kin.Dom.2-C-terminal) (Entrez RPS6KA2), 1000 nM): 100%; remaining activity at 0.1 µM [25]: 100%; remaining activity at 1 µM [26]: 100%; remaining activity at 0.1 µM [27]: 84%; remaining activity at 0.1 µM [28]: 58%
